Our source for the EC50 values is US7094807B2, “Substituted aryl thioureas and related compounds; inhibitors of viral replication” (Achillion Pharmaceuticals, Inc., priority 2002, dated 2006).

The test relates to HCV replicon. The test can be described thus: HCV replicon assay (NPT ELISA in HCV replicon-containing cells). It counts as cell-based. Particulars: Hepatitis C virus, 72 h. On the procedure: The compounds claimed herein were tested for the ability to inhibit viral replication of the Hepatitis C replicon in cultured cells in which the HCV replicon construct has been incorporated. The HCV replicon system was described by Bartenschlager, et. al (Science, 285, pp. 110-113 (1999)). The replicon system is predictive of in vivo anti-HCV activity; compounds that are active in humans uniformly evidence activity in the replicon assay.
In this assay HCV replicon containing cells are treated with different concentrations of the test compound to ascertain the ability of the test compound to suppress replication of the HCV replicon. As a positive control, HCV replicon-containing cells are treated with different concentrations of interferon alpha, a known inhibitor of HCV replication. The replicon assay system includes Neomycin Phosphotransferase (NPT) as a component of the replicon itself in order to detect the transcription of replicon gene products in the host cell. Cells in which the HCV replicon is actively replicating have high levels of NPT; the level of NPT is proportional to HCV replication. […] The NPT level of each sample is measured using a captured ELISA.
A protocol for testing compounds for the ability to inhibit viral replication of the Hepatitis C replicon cultured cells in which the replicon construct has been incorporated, follows.
The HCV replicon contains, 5-′3′, the HCV-IRES, the neomycin phosphotransferase (neo) gene, the IRES of encephalomyocarditis virus, which directs translation of HCV sequences NS3 to NS5B, and the 3′-NTR. The sequence of the HCV replicon has been deposited in GenBank (Accession no. AJ242652).
The replicon is transfected into Huh-7 cells using standard methods such as electroporation.
The equipment and materials include, but are not limited to, Huh-7 HCV replicon-containing cells, maintenance media (DMEM (Dulbecco's modified Eagle media) supplemented with 10% FBS, L-glutamine, non-essential amino acids, penicillin (100 units/ml), streptomycin (100 micrograms/ml), and 500 micrograms/ml of Geneticin G418), screening media (DMEM supplemented with 10% FBS, L-glutamine, and non-essential amino acid, penicillin (100 units/ml) and streptomycin (100 micrograms/ml)), 96 well tissue culture plates (flat bottom), 96 well plates (U bottom for drug dilution), Interferon alpha for positive control, fixation reagent (such as methanol: acetone), primary antibody (rabbit anti-NPTII), secondary antibody: Eu-N1 l, and enhancement solution.
HCV replicon-containing cells are rinsed with once PBS once; 2 mls of trypsin is added. Cells are incubated at 37° C. in a 5% CO2 incubator for 3-5 minutes. 10 mls of complete medium is added to stop the reaction. Cells are blown gently, put into a 15 ml tube, and spun at 1200 rpm for four minutes. The trypsin/medium solution is removed and 5 mls of medium (500 ml DMEM (high glucose)) from BRL catalog #12430-054; 50 mls 10% FBS, […] (50 mg/ml, BRL 10131-035), 5 ml MEM non-essential amino acid (100×BRL #11140-050) and 5 ml pen-strep (BRL #15140-148) is added. The cells and media are mixed carefully
Cells are plated with screening medium (500 ml DMEM (BRL #21063-029), 50 ml FBS (BRL #10082-147) and 5 ml MEM non-essential amino acid (BRL #11140-050) at 6000-7500 cells/100 μl/well of 96 well plate (6-7.5×10^5 cells/10 ml/plate). Plates are placed into 37° C. 5% CO2 incubator overnight.
The following morning, drugs (test compounds or interferon alpha) are diluted in 96 well U bottom plates with media or DMSO/media, depending on the final concentration chosen for screening. Generally for 6 concentrations of each test compounds ranging from 10 micromolar to 0.03 micromolar are applied. 100 μl of the test compound dilution is placed in wells of the 96 well plate containing the HCV replicon cells. Media without drug is added to some wells as a negative controls. DMSO is known to affect cell growth. […]
(In general: In antiviral work, replicon cells carry a viral genome segment that copies itself.)

Setting [1] is: HCV replicon-containing Huh-7 cells, three days incubation, read-out: EC50 for inhibition of replication of the HCV replicon.
Setting [2] is: read-out: EC50 for inhibition of viral RNA replicon replication in Huh9-13 cells.

Each structure is given as a SMILES string. Where two headings read alike, the source gives them in different places.

Regarding `CCCCOC(=O)c1ccc(NC(=S)NC(=O)c2ccc3ccccc3c2)cc1` [Compound 1, 4-[3-(Naphthalene-2-carbonyl)-thioureido]-benzoic Acid Butyl Ester], the EC50 under setting [1] was < 30 µM. Same read-out and setting: for `CCCCOC(=O)c1ccc(NC(=S)N(C)C(=O)COc2ccccc2)cc1` [Compound 2, 4-[3-Methyl-3-(2-Phenoxy-acetyl)-thioureido]benzoic Acid Butyl Ester] the value was < 30 µM; for `O=C(COc1ccc(C2CC2)cc1)NC(=S)NCc1cccs1` [Compound 3, 1-(2-(4-Cylcopropylphenoxy)acetyl)-3-((thiophen-2-yl)methyl)thiourea], < 30 µM. As to `CCCCOC(=O)c1ccc(NC(=S)N(C)C(=O)COc2ccccc2C)cc1` [Compound 4, 4-[3-Methyl-3-(2-o-tolyloxy-acetyl)-thioureido]-benzoic acid butyl ester], the EC50 reads like this: under setting [2], 4.3 µM; under setting [1], < 30 µM.

Consider `CCCCOC(=O)c1ccc(NC(=S)N(C)C(=O)COc2cccc(C)c2)cc1` [Compound 5, 4-[3-Methyl-3-(2-m-tolyloxy-acetyl)-thioureido]-benzoic acid butyl ester], for which the EC50 under setting [1] was < 30 µM. `CCCCOC(=O)c1ccc(NC(=S)NC(=O)COc2ccc(C)cc2)cc1` [Compound 6, 4-[3-(2-p-tolyloxy-acetyl)-thioureido]-benzoic acid butyl ester]: the EC50 under setting [1] was < 30 µM. For the compound `CCCCOC(=O)c1ccc(NC(=S)NC(=O)COc2ccc(F)cc2)cc1` [Compound 7, 4-{3-[2-(4-Fluoro-phenoxy)-acetyl]-thioureido}-benzoic acid butyl ester], the EC50 under setting [2] is 3.4 µM and the EC50 under setting [1] is < 30 µM. For the compound `CCCCOC(=O)c1ccc(NC(=S)NC(=O)COc2ccc(OC)cc2)cc1` [Compound 8, 4-{3-[2-(4-Methoxy-phenoxy)-acetyl]-thioureido}-benzoic acid butyl ester], the EC50 under setting [1] was < 30 µM. For the compound `O=C(COc1ccccc1)NC(=S)Nc1ccc(F)cc1` [Compound 9, 1-(4-Fluoro-phenyl)-3-(2-phenoxy-acetyl)-thiourea], the EC50 under setting [1] is < 30 µM. On the same count and under the same terms, in the case of `COc1cccc(NC(=S)NC(=O)COc2ccccc2)c1` [Compound 10, 1-(3-Methoxy-phenyl)-3-(2-phenoxy-acetyl)-thiourea] it was < 30 µM; in that of `COc1ccc(NC(=S)NC(=O)COc2ccccc2)cc1` [Compound 11, 1-(4-Methoxy-phenyl)-3-(2-phenoxy-acetyl)-thiourea], < 30 µM; in that of `O=C(COc1ccccc1)NC(=S)Nc1ccc(Oc2ccccc2)cc1` [Compound 12, 1-(2-Phenoxyacetyl)-3-(4-phenoxyphenyl)thiourea], < 30 µM.

`O=C(COc1ccccc1)NC(=S)Nc1ccc(OCc2ccccc2)cc1` [Compound 13, 1-(4-Benzyloxy-phenyl)-3-(2-phenoxy-acetyl)-thiourea]: the EC50 under setting [1] was < 30 µM.

For the compound `O=C(COc1ccccc1)NC(=S)Nc1ccc(-c2ccccc2)cc1` [Compound 14, 1-Biphenyl-4-yl-3-(2-phenoxy-acetyl)-thiourea], under setting [1], the EC50 was < 30 µM. With `O=C(COc1ccccc1)NC(=S)Nc1ccc(C2CCCCC2)cc1` [Compound 15, 1-(4-Cyclohexyl-phenyl)-3-(2-phenoxy-acetyl)-thiourea], the EC50 under setting [1] was < 30 µM.

Turning to `O=C(COc1ccccc1)NC(=S)Nc1ccc(N2CCCCC2)cc1` [Compound 16, 1-[(4-piperidine-1-yl)-phenyl]-3-(2-phenoxy-acetyl)-thiourea], the EC50 under setting [1] was < 30 µM.

Take `CCN(CC)c1ccc(NC(=S)NC(=O)COc2ccccc2)cc1` [Compound 17, 1-(4-(Diethylamino)-phenyl)-3-(2-phenoxy-acetyl)-thiourea]: under setting [1], the EC50 was < 30 µM.

As for `O=C(COc1ccccc1)NC(=S)Nc1cccc(Oc2ccccc2)c1` [Compound 18, 1-(2-phenoxy-acetyl)-3-(3-phenoxy-phenyl)-thiourea], the EC50 under setting [1] is < 30 µM.

On to `O=C(COc1ccccc1)NC(=S)Nc1cccc(OCc2ccccc2)c1` [Compound 19, 1-(3-Benzyloxy-phenyl)-3-(2-phenoxy-acetyl)-thiourea], for which the EC50 under setting [1] is < 30 µM. Regarding `CC(=O)c1ccccc1NC(=S)NC(=O)COc1ccccc1` [Compound 20, 1-(2-Acetyl-phenyl)-3-(2-phenoxy-acetyl)-thiourea], the concentration for a half-maximal effect (EC50) under setting [1] was < 30 µM. Take `O=C(COc1ccccc1)NC(=S)Nc1ccc2cc(F)ccc2c1` [Compound 21, 1-(6-Fluoro-naphthalen-2-yl)-3-(2-phenoxy-acetyl)-thiourea]: the concentration giving a half-maximal response (EC50) under setting [1] was < 30 µM. Consider `O=C(COc1ccccc1)NC(=S)Nc1ccc2ncsc2c1` [Compound 22, 1-Benzothiazol-6-yl-3-(2-phenoxy-acetyl)-thiourea], for which, under setting [1], the EC50 is < 30 µM. Regarding `O=C(COc1ccccc1)NC(=S)Nc1cnc2ccccc2c1` [Compound 23, 1-(2-Phenoxy-acetyl)-3-quinolin-3-yl-thiourea], the concentration for a half-maximal effect (EC50) under setting [1] was < 30 µM. Regarding `N#Cc1ccc(NC(=S)NC(=O)COc2ccc(Cl)c(Cl)c2)cc1` [Compound 24, 1-(2-(3,4-dichloro-phenoxy)acetyl)-3-(4-cyanophenyl)thiourea], the EC50 under setting [2] amounted to 12.1 µM and the EC50 under setting [1] was < 30 µM. For `O=C(NC(=S)Nc1cccc(Oc2ccccc2)c1)c1ccccc1O` [Compound 25, 1-(2-Hydroxy-benzoyl)-3-(3-phenoxy-phenyl)-thiourea], under setting [1], the EC50 was < 30 µM. For the compound `O=C(NC(=S)Nc1cccc(Oc2ccccc2)c1)c1cc2ccccc2o1` [Compound 26, 1-(Benzofuran-2-carbonyl)-3-(3-phenoxy-phenyl)-thiourea], the EC50 under setting [1] is < 30 µM. With `O=C(NC(=S)Nc1cccc(OCc2ccccc2)c1)c1cc2ccccc2o1` [Compound 27, 1-(Benzofuran-2-carbonyl)-3-(3-benzyloxy-phenyl)-thiourea], the EC50 under setting [1] is < 30 µM.

In the case of `O=C(NC(=S)Nc1cccc(OCc2ccccc2)c1)c1cc2ccccc2s1` [Compound 28, 1-(Benzo[b]thiophene-2-carbonyl)-3-(3-benzyloxy-phenyl)-thiourea], the EC50 under setting [1] was < 30 µM. With `O=C(NC(=S)Nc1cccc(OCc2ccccc2)c1)c1cc2cc(F)ccc2[nH]1` [Compound 29, 1-(3-Benzyloxy-phenyl)-3-(5-fluoro-1H-indole-2-carbonyl)-thiourea], the EC50 under setting [1] was < 30 µM. Turning to `O=C(NC(=S)Nc1ccc(Oc2ccccc2)cc1)c1cc2cc(F)ccc2o1` [Compound 30, 1-(5-Fluoro-benzofuran-2-carbonyl)-3-(4-phenoxy-phenyl)-thiourea], the EC50 under setting [1] is < 30 µM. Same read-out and setting: in the case of `Fc1ccc2oc(C(=S)NC(=S)Nc3ccc(Oc4ccccc4)cc3)cc2c1` [Compound 31, 1-(5-Fluoro-benzofuran-2-carbothioyl)-3-(4-phenoxy-phenyl)-thiourea] it was < 30 µM. For `O=C(CCc1ccc(F)cc1)NC(=S)Nc1ccc(Oc2ccccc2)cc1` [Compound 32, 1-[3-(4-Fluoro-phenyl)-proprionyl]-3-(4-phenoxy-phenyl)-thiourea], under setting [1], the EC50 was < 30 µM. Take `O=C(COc1ccccc1)NC(=S)NC1CCC(Oc2ccccc2)CC1` (centres unmarked) [Compound 33, 1-(2-Phenoxy-acetyl)-3-(4-phenoxy-cyclohexyl)-thiourea]: the EC50 under setting [1] was < 30 µM. In the case of `O=C(COc1ccccc1)NC(=S)NCCc1ccccc1` [Compound 34, 1-Phenethyl-3-(2-phenoxy-acetyl)-thiourea], the EC50 under setting [1] is < 30 µM. `CN(CCc1ccccc1)C(=S)NC(=O)COc1ccccc1` [Compound 35, 1-Methyl-1-phenethyl-3-(2-phenoxy-acetyl)-thiourea]: the EC50 under setting [1] is < 30 µM.

By EC50 is commonly meant the midpoint of the concentration-response curve.
